Data set [1] concerns bone marrow stem cells of the granulocytic/monocytic series. Nature of the data set: Bone marrow toxicity in vitro (CFU-GM assay). To be noted: for toxicity on bone marrow stem cells of the granulocytic/monocytic series: in words, up to the highest tested concentration of 100 μg/ml.
The subject of data set [2] is Murine Cytomegaly Virus (MCMV). As to the kind of experiment: Murine Cytomegaly Virus (MCMV) model, survival rate. Particulars: 8×10^5 PFU i.p.; oral bioavailability model; drug dose not given. Format: in vivo, female Balb/c mice. On the procedure:
Female Balb/c mice were treated i.p. with a dose of 8×10^5 PFU (plaque forming units).

For data set [3] the following is noted: due to similarity to pyrophosphate by accumulation in bones; cited from earlier work.
The nature of data set [4]: Stability (in the investigations and during production). Type of data set: physicochemical. Particulars: in the investigations and during production / under the same conditions.
Data set [5] has as its system HSV 1 and 2, influenza, HBV, VZV, EBV as well as retroviral infections. To be noted: cited from earlier work.
The next data set relates to bone marrow. To be noted: AIDS patients; cited from earlier work.

Values after ≈ are worked out from the molar mass of the structure shown. Structures can show the parent of a compound that is named as a salt. Bounds are passed on as bounds.

For the molecule `N.N.[Cl][Pt][Cl]` [Cis-DDP (Cisplatin), Cisplatin], the concentration for half-maximal inhibition (IC50) in data set [1] (CFU-GM assay, mean value±SEM, number of experiments in parentheses, highest tested concentration 100 μg/ml) came to 0.45 ± 0.11 µg/mL.
Molecule `CCCCCCCCCCCCSCC(COP(=O)(O)CC(=O)O)OCCCCCCCCCC` (racemic) [DMDOP-PAA, R,S-(3-dodecylmercapto-2-decyloxy)-propoxy-hydroxy-phosphinyl acetic acid di-sodium salt] yielded a concentration for half-maximal inhibition (IC50) in data set [1] (Mus musculus, CFU-GM) of over 100 µg/mL. Further, the “toxicity on bone marrow stem cells of the granulocytic/monocytic series” value (“toxicity … of the granulocytic/monocytic series” below) in data set [1] is “no toxicity”.
In data set [1] (Mus musculus, CFU-GM), `CCCCCCCCCCCCCCCCCCOCC(O)COP(=O)(O)C(=O)O` (stereo not drawn) [OOHP-PFA, (3-octadecyloxy-2-hydroxy)-propoxy-hydroxy-phosphinylformic acid] gave a half-inhibitory concentration (IC50) of 94.5 µg/mL (≈ 209 µM). Besides, the “toxicity … of the granulocytic/monocytic series” value in data set [1] is “more toxic than DMDOP-PFA and DMDOP-PAA”.
Molecule `COc1cccc2c1C(=O)c1c(O)c3c(c(O)c1C2=O)C[C@@](O)(C(=O)CO)C[C@@H]3O[C@H]1C[C@H](N)[C@H](O)[C@H](C)O1` [Doxorubicin] registered an IC50 in data set [1] (Mus musculus, CFU-GM) of 0.046 ± 0.007 µg/mL (≈ 0.0846 µM).
Regarding `O=C(O)P(=O)(O)O` [phosphonoformic acid], the “survival rate of the animals (rank order)” value (“survival rate of the animals” for short) in data set [2] is listed as “untreated<Foscarnet treated<DMDOP-PFA treated<DMDOP-PFA-OMe”. Besides, the 50% inhibitory concentration (IC50) in data set [1] (Mus musculus, CFU-GM) was over 100 µg/mL. Moreover, in data set [3], the toxicity entry is “toxic”.
Take `CCCCCCCCCCCCSCC(COP(=O)(O)C(=O)O)OCCCCCCCCCC` (racemic) [DMDOP-PFA, R,S-(3-Dodecylmercapto-2-decyloxy)-propoxy-hydroxy-phosphinyl-formic acid di-sodium salt]: in data set [2], the “survival rate of the animals” value is given as “untreated<Foscarnet treated<DMDOP-PFA treated<DMDOP-PFA-OMe”. Also, the concentration for half-maximal inhibition (IC50) in data set [1] (Mus musculus, CFU-GM) was over 100 µg/mL. The “toxicity … of the granulocytic/monocytic series” value in data set [1] is given as “no toxicity”.
Turning to `CCCCCCCCCCCCCCCCCCOC[C@@H](O)COP(=O)(O)C(=O)O` [batylphosphonoformate, 1-O-octadecyl-sn-glycero-3-phosphono-formate], the stability result in data set [4] is “unstable”.
`CCCCCCCCCCCCCCCCCCOCC(O)COP(=O)(O)C(=O)OCC` (stereo not drawn) [OOHP-PFAE, (3-octadecyloxy-2-hydroxy)-propoxy-hydroxy-phosphinylformic ethyl ester]: the IC50 in data set [1] (Mus musculus, CFU-GM) stood at 59.4 µg/mL (≈ 123 µM). In data set [1], the “toxicity … of the granulocytic/monocytic series” value was “more toxic than DMDOP-PFA and DMDOP-PAA”.
Consider `CCCCCCCCCCCCSCC(COP(=O)(O)C(=O)OC)OCCCCCCCCCC` (racemic) [DMDOP-PFA-OMe, R,S-(3-dodecylmercapto-2-decyloxy)propoxy-hydroxy-phosphinylformic acid methyl ester], for which the “survival rate of the animals” value in data set [2] is given as “untreated<Foscarnet treated<DMDOP-PFA treated<DMDOP-PFA-OMe”.
In the case of `O=C(O)CP(=O)(O)O` [phosphonoacetic acid], in data set [1] (Mus musculus, CFU-GM), the half-maximal inhibitory concentration (IC50) came to 62.9 µg/mL (≈ 449 µM). Besides, the “toxicity … of the granulocytic/monocytic series” value in data set [1] is “more toxic than DMDOP-PFA and DMDOP-PAA”. The antiviral activity result in data set [5] is reported as “good antiviral activity”. For the same molecule, the toxicity result in data set [3] is given as “toxic”.
Consider `Cc1cn([C@H]2C[C@H](N=[N+]=[N-])[C@@H](CO)O2)c(=O)[nH]c1=O` [3'-azido-3'-deoxythymidine, 3'-Azido-3'-deoxythymidine], for which the “treated patients needing blood transfusions due to toxic side effects on the bone marrow” value in the data set on bone marrow is reported as “about 50%”.

The values are drawn from patent publication US6136797A, “Phospholipid derivatives of phosphono-carboxylic acids, the production of said derivatives and the use of said derivatives as antiviral medicaments” (priority 1995, dated 2000).
